According to ChEMBL document CHEMBL1158057, “Hydroxylated gedunin derivatives from Cedrela sinensis” (J Nat Prod, 2006):
Values after ≈ are worked out from the molar mass of the structure shown.

Test system: P388
Experiment: Cytotoxicity against mouse P388 cells
Format: functional, cell-based

| Compound | IC50 [mg/L] |
| --- | --- |
| CC1(C)C(=O)C=C[C@]2(C)[C@H]3CC[C@@]4(C)[C@H](c5ccoc5)OC(=O)[C@H]5O[C@]54[C@]3(C)[C@H](O)C[C@@H]12 [DEACETYLGEDUNIN] | 4.5 (≈ 10.2 µM) |
| CC1(C)C(=O)C=C[C@]2(C)[C@H]3[C@@H](O)C[C@@]4(C)[C@H](c5ccoc5)OC(=O)[C@H]5O[C@]54[C@]3(C)[C@H](O)C[C@@H]12 | 7.8 (≈ 17.1 µM) |
| CC(=O)O[C@@H]1C[C@H]2C(C)(C)C(=O)C=C[C@]2(C)[C@H]2[C@H](O)C[C@@]3(C)[C@H](c4ccoc4)OC(=O)[C@H]4O[C@]43[C@@]21C | 71 (≈ 142 µM) |
| CC(=O)O[C@H]1C[C@@]2(C)[C@H](c3ccoc3)OC(=O)[C@H]3O[C@]32[C@@]2(C)[C@H]1[C@@]1(C)C=CC(=O)C(C)(C)[C@@H]1C[C@H]2OC(C)=O | 3.8 (≈ 7.03 µM) |
| CC1(C)C(=O)C=C[C@]2(C)[C@H]3[C@H](O)C[C@@]4(C)[C@H](c5ccoc5)OC(=O)[C@H]5O[C@]54[C@]3(C)[C@H](O)C[C@@H]12 | > 100 |
| CC(=O)O[C@@H]1C[C@H]2C(C)(C)C(=O)C=C[C@]2(C)[C@H]2[C@@H](O)C[C@@]3(C)[C@H](c4ccoc4)OC(=O)[C@H]4O[C@]43[C@@]21C | 5.4 (≈ 10.8 µM) |
| CC(=O)O[C@@H]1C[C@@]2(C)[C@H](c3ccoc3)OC(=O)[C@H]3O[C@]32[C@@]2(C)[C@H]1[C@@]1(C)C=CC(=O)C(C)(C)[C@@H]1C[C@H]2OC(C)=O | 63 (≈ 117 µM) |
| CC(=O)O[C@@H]1C[C@H]2C(C)(C)C(=O)C=C[C@]2(C)[C@H]2C(=O)C[C@@]3(C)[C@H](c4ccoc4)OC(=O)[C@H]4O[C@]43[C@@]21C | 3 (≈ 6.04 µM) |
| CC(=O)O[C@@H]1C[C@H]2C(C)(C)C(=O)C=C[C@]2(C)[C@H]2CC[C@@]3(C)[C@H](c4ccoc4)OC(=O)[C@H]4O[C@]43[C@@]21C [GEDUNIN] | 3.3 (≈ 6.84 µM) |
